According to patent EP0589484A1, “1,2-Ethanediol derivative and salt thereof, process for producing the same, and cerebral function-improving agent comprising the same” (TOYAMA CHEMICAL CO., LTD., priority 1989, dated 1990):
Counter-ions that a name gives are not always drawn. Like-named read-outs stand apart in the source and are kept apart here.

How the values were obtained:
[1] = tested on: ddY female mouse; assay: Effect of test compound on hypoxia (antihypoxic activity); assay type: in vivo; conditions: po, read-out: Antihypoxic activity (%)
Method: A test compound dissolved in physiological saline (100 mg/kg) was orally administered to a ddY female mouse (5-6 weeks old, each group consisting of 10 mice). After 1 (or 30 minutes*) hour from the administration, each mouse was placed in a 300-ml glass chamber, and a gas mixture consisting of 4% of oxygen and 96% of nitrogen was passed through the chamber at a rate of 5 liters/min. A time from the start of gas passing to the death of each mouse was measured.
To a control mice group was orally administered only physiological saline.
The antihypoxic activity of the test compound was calculated from the following formula: [formula]

[2] = tested on: ddY male mice; assay: Acute toxicity; assay type: in vivo, mouse; conditions: 50 mg/kg intravenously, group of 3 ddY male mice
Description: A test compound dissolved in physiological saline was intravenously administered to a group of 3 ddY male mice (5-6 weeks old) to examine the acute toxicity of the test compound.

[3] = 0.5 h, 100 mg/kg orally, placed in chamber (4% oxygen, 96% nitrogen) after 30 minutes from the administration (values marked *), survival time relative to control
[4] = 100 mg/kg orally, placed in chamber (4% oxygen, 96% nitrogen) after 1 hour from the administration, survival time relative to control

O[C@@H](COC[C@@H]1CNCCO1)c1ccccc1 [compound 219, (1R,2'S)-1-phenyl-2-[(morpholin-2-yl)methoxy]ethanol maleate]
response vs control in vivo at 100 mg/kg [1, 3]: 222%
Acute toxicity [2]: no death case

CN(C)CCOC[C@H](O)c1ccccc1 [compound 3]
response vs control in vivo at 100 mg/kg [1, 3]: 245%
Acute toxicity [2]: no death case

CN(C)CCOCC(O)c1ccc2ccccc2c1.Cl (stereo not shown) [compound 229, 2-[2-(N,N-dimethylamino)ethoxy]-1-(2-naphthyl)ethanol hydrochloride]
response vs control in vivo at 100 mg/kg ([1]; 1 h): 123%
Acute toxicity [2]: no death case

OC(COCc1cccnc1)c1cccc(Cl)c1 (stereo not shown) [compound 126]
response vs control in vivo at 100 mg/kg [1, 3]: 172%
Acute toxicity [2]: no death case

CN(C)CCOCC(O)c1ccc2occc2c1 (stereo not shown) [compound 325]
response vs control in vivo at 100 mg/kg [1, 3]: 217%
Acute toxicity [2]: no death case

O[C@@H](COC[C@H]1CNCCO1)c1ccccc1 [compound 221, (1R,2'R)-1-phenyl-2-[(morpholin-2-yl)methoxy]ethanol oxalate]
response vs control in vivo at 100 mg/kg [1, 3]: 183%
Acute toxicity [2]: no death case

CNCCOCC(O)c1cc2ccccc2s1 (stereo not shown) [compound 375]
response vs control in vivo at 100 mg/kg [1, 3]: 156%
Acute toxicity [2]: no death case

O[C@H](COC[C@H]1CNCCO1)c1ccccc1 [compound 220, (1S,2'R)-1-phenyl-2-[(morpholin-2-yl)methoxy]ethanol maleate]
response vs control in vivo at 100 mg/kg [1, 3]: 183%
Acute toxicity [2]: no death case

CN(C)CCOCC(O)c1cccc(C(F)(F)F)c1.Cl (stereo not shown) [Compound No. 42, 2-[2-(N,N-dimethylamino)ethoxy]-1-(3-trifluoromethylphenyl)ethanol hydrochloride]
response vs control in vivo at 100 mg/kg ([1]; 1 h): 194%
Acute toxicity [2]: no death case

OC(COCc1cnc[nH]1)c1cccc2ccccc12 (stereo not shown) [compound 279]
response vs control in vivo at 100 mg/kg [1, 4]: 198%
Acute toxicity [2]: no death case

CN(C)CCOCC(O)c1ccc(Cl)cc1 (stereo not shown) [compound 33]
response vs control in vivo at 100 mg/kg [1, 3]: 224%
Acute toxicity [2]: no death case

Cc1ccc(C(O)COCCN(C)C)cc1 (stereo not shown) [compound 16]
response vs control in vivo at 100 mg/kg [1, 4]: 116%
Acute toxicity [2]: no death case

CN(C)CCCCOCC(O)c1ccc2sccc2c1 (stereo not shown) [compound 337]
response vs control in vivo at 100 mg/kg [1, 3]: 309%
Acute toxicity [2]: no death case

NCCOCC(O)c1ccc2occc2c1 (stereo not shown) [compound 369]
response vs control in vivo at 100 mg/kg [1, 3]: 143%
Acute toxicity [2]: no death case

OC(COCc1c[nH]cn1)c1ccccc1 (stereo not shown) [compound 132]
response vs control in vivo at 100 mg/kg [1, 3]: 133%
Acute toxicity [2]: no death case

Cc1cccc(C(O)COCCN(C)C)c1.Cl (stereo not shown) [compound 15, 2-[2-(N,N-dimethylamino)ethoxy]-1-(3-methylphenyl)ethanol hydrochloride]
response vs control in vivo at 100 mg/kg ([1]; 0.5 h): 194%
Acute toxicity [2]: no death case

CN(C)CCOCC(O)c1cccc(F)c1.Cl (stereo not shown) [Compound No. 1, 2-[2-(N,N-dimethylamino)ethoxy]-1-(3-fluorophenyl)ethanol hydrochloride]
response vs control in vivo at 100 mg/kg ([1]; 1 h): 155%
Acute toxicity [2]: no death case

Cn1cnc(COCC(O)c2ccccc2)c1 (stereo not shown) [compound 119]
response vs control in vivo at 100 mg/kg [1, 3]: 175%
Acute toxicity [2]: no death case

O=C1CCCN1CCOCC(O)c1ccccc1 (stereo not shown) [compound 9]
response vs control in vivo at 100 mg/kg [1, 4]: 113%
Acute toxicity [2]: no death case

Cl.O=C(NCCOCC(O)c1ccc2sccc2c1)c1cccnc1 (stereo not shown) [compound 360, 1-(benzo[b]thiophen-5-yl)-2-[2-(nicotinoylamino)ethoxy]ethanol hydrochloride]
Acute toxicity [2]: no death case

OC(COCc1cccnc1)c1ccccc1 (stereo not shown) [compound 120]
response vs control in vivo at 100 mg/kg [1, 3]: 162%
Acute toxicity [2]: no death case

Cc1ccc2sc(C(O)COCCN(C)C)cc2c1 (stereo not shown) [compound 385]
response vs control in vivo at 100 mg/kg [1, 3]: 161%
Acute toxicity [2]: no death case

CN(C)CCOCC(O)c1ccccc1 (stereo not shown) [compound 2]
response vs control in vivo at 100 mg/kg [1, 4]: 119%
Acute toxicity [2]: no death case

COc1ccc2cc(C(O)COCCN(C)C)ccc2c1 (stereo not shown) [compound 236]
response vs control in vivo at 100 mg/kg [1, 4]: 177%
Acute toxicity [2]: no death case

CN(C)CCOCC(O)c1ccc2c(c1)CCCC2 (stereo not shown) [compound 251]
response vs control in vivo at 100 mg/kg [1, 3]: 186%
Acute toxicity [2]: no death case

CN(C)CCOCC(O)c1ccc2c(c1)OCCO2 (stereo not shown) [compound 194]
Acute toxicity [2]: no death case

CN(C)CCOCC(O)c1cccc(Oc2ccccc2)c1 (stereo not shown) [compound 53]
Acute toxicity [2]: no death case

CN(C)CCOCC(O)c1ccc2sccc2c1.Cl (stereo not shown) [compound 312, 1-(benzo[b]thiophen-5-yl)-2-[2-(N,N-dimethylamino)ethoxy]ethanol hydrochloride]
response vs control in vivo at 100 mg/kg ([1]; 0.5 h): 221%
Acute toxicity [2]: no death case

CN(C)CCOCC(O)c1cccs1 (stereo not shown) [compound 313]
response vs control in vivo at 100 mg/kg [1, 3]: 154%
Acute toxicity [2]: no death case

CN(C)CCOCC(O)c1ccc(Cl)s1 (stereo not shown) [compound 368]
response vs control in vivo at 100 mg/kg [1, 3]: 135%
Acute toxicity [2]: no death case

COc1ccc(C(O)COCCN(C)C)cc1 (stereo not shown) [compound 44]
Acute toxicity [2]: no death case

OC(COCCN1CCOCC1)c1ccc2sccc2c1 (stereo not shown) [compound 327]
response vs control in vivo at 100 mg/kg [1, 3]: 160%
Acute toxicity [2]: no death case

OC(COCCNC1CC1)c1ccccc1 (stereo not shown) [compound 209]
response vs control in vivo at 100 mg/kg [1, 3]: 148%
Acute toxicity [2]: no death case

CN(C)CCCOCC(O)c1ccc2occc2c1 (stereo not shown) [compound 390]
response vs control in vivo at 100 mg/kg [1, 3]: 248%
Acute toxicity [2]: no death case

Cc1ccc2cc(C(O)COCCN(C)C)ccc2c1 (stereo not shown) [compound 235]
Acute toxicity [2]: no death case

OC(COCC1CNCCO1)c1ccc2ccccc2c1 (stereo not shown) [compound 256, 1-(2-naphthyl)-2-[(morpholin-2-yl)methoxy]ethanol 1/2 fumarate]
response vs control in vivo at 100 mg/kg [1, 4]: 154%
Acute toxicity [2]: no death case

OC(COCC1CNCCO1)c1ccccc1 (stereo not shown) [compound 151, 1-phenyl-2-[(morpholin-2-yl)methoxy]ethanol]
response vs control in vivo at 100 mg/kg [1, 4]: 182%
Acute toxicity [2]: no death case

CSc1ccc(C(O)COCCN(C)C)cc1 (stereo not shown) [compound 46]
response vs control in vivo at 100 mg/kg [1, 3]: 150%
Acute toxicity [2]: no death case

CN(C)CCOCC(O)c1ccoc1 (stereo not shown) [compound 316]
Acute toxicity [2]: no death case

OC(COCC1CN(Cc2ccccc2)CCO1)c1ccc(Oc2ccccc2)cc1 (stereo not shown) [compound 147]
Acute toxicity [2]: no death case

Cn1cncc1COCC(O)c1cccc2ccccc12 (stereo not shown) [compound 283, 2-(1-methylimidazol-5-yl)methoxy-1-(1-naphthyl)ethanol]
response vs control in vivo at 100 mg/kg [1, 4]: 183%
Acute toxicity [2]: no death case

CN(C)CCOCC(O)c1ccc2c(c1)OCO2 (stereo not shown) [compound 52]
Acute toxicity [2]: no death case
